Assay results from the NIST ThermoML archive (doi:10.1007/s10765-005-8592-5).
Several values for one entry are separate records, joined by “and”; a condition that tells them apart may be missing. Identical values can stand only once. ± gives the expanded uncertainty stated by the source.

Assays:
[1] = molar heat capacity at constant volume; xn = mol fraction of the nth substance listed; conditions: Fluid (supercritical or subcritical phases), Vacuum adiabatic calorimetry
[2] = xn = mol fraction of the nth substance listed; conditions: Fluid (supercritical or subcritical phases), isochoric method

CC(C)C [2-methylpropane] + CCC
Conditions	mass density, [2] [kg/m3]	molar heat capacity at constant volume, [1]
270.15 K, 4579 kPa, x2 = 0.498	566.8 ± 0.9	82.79 ± 0.26 J/K/mol
275.15 K, 8198 kPa, x2 = 0.498	566.3 ± 0.9	81.61 ± 0.26 J/K/mol
280.15 K, 11759 kPa, x2 = 0.498	565.9 ± 0.9	82.79 ± 0.26 J/K/mol
285.15 K, 15256 kPa, x2 = 0.498	565.5 ± 0.9	84.27 ± 0.26 J/K/mol
290.15 K, 18687 kPa, x2 = 0.498	565.1 ± 0.9	85.14 ± 0.26 J/K/mol
295.15 K, 22038 kPa, x2 = 0.498	564.8 ± 0.9	85.81 ± 0.26 J/K/mol
300.15 K, 25302 kPa, x2 = 0.498	564.5 ± 0.9	87.7 ± 0.26 J/K/mol
305.15 K, 28471 kPa, x2 = 0.498	564.2 ± 0.9	89.64 ± 0.26 J/K/mol
315.15 K, 9748 kPa, x2 = 0.498	524.3 ± 0.8	89.39 ± 0.26 J/K/mol
320.15 K, 12415 kPa, x2 = 0.498	523.9 ± 0.8	91.23 ± 0.26 J/K/mol
325.15 K, 15069 kPa, x2 = 0.498	523.6 ± 0.8	92.35 ± 0.26 J/K/mol
330.15 K, 17709 kPa, x2 = 0.498	523.3 ± 0.8	91.89 ± 0.26 J/K/mol
335.15 K, 20336 kPa, x2 = 0.498	523 ± 0.8	93.07 ± 0.26 J/K/mol
340.15 K, 22950 kPa, x2 = 0.498	522.8 ± 0.8	92.66 ± 0.26 J/K/mol
345.15 K, 25550 kPa, x2 = 0.498	522.5 ± 0.8	92.4 ± 0.26 J/K/mol
350.15 K, 7962 kPa, x2 = 0.498	471.7 ± 0.8	93.89 ± 0.26 J/K/mol
350.15 K, 28136 kPa, x2 = 0.498	522.3 ± 0.8	93.22 ± 0.26 J/K/mol
355.15 K, 9814 kPa, x2 = 0.498	471.4 ± 0.8	93.73 ± 0.26 J/K/mol
360.15 K, 11663 kPa, x2 = 0.498	471.2 ± 0.8	93.73 ± 0.26 J/K/mol
365.15 K, 13509 kPa, x2 = 0.498	470.9 ± 0.8	93.22 ± 0.26 J/K/mol
370.15 K, 15351 kPa, x2 = 0.498	470.7 ± 0.8	94.71 ± 0.26 J/K/mol
375.15 K, 17187 kPa, x2 = 0.498	470.5 ± 0.8	94.19 ± 0.26 J/K/mol
380.15 K, 19017 kPa, x2 = 0.498	470.2 ± 0.8	95.06 ± 0.26 J/K/mol
380.15 K, 20994 kPa, x2 = 0.756	458.6 ± 0.7	88.38 ± 0.24 J/K/mol
385.15 K, 4713 kPa, x2 = 0.756	279.9 ± 0.5	150.35 ± 0.43 J/K/mol
385.15 K, 22824 kPa, x2 = 0.756	458.4 ± 0.7	90.71 ± 0.24 J/K/mol
390.15 K, 5229 kPa, x2 = 0.756	279.8 ± 0.5	127.92 ± 0.38 J/K/mol
390.15 K, 22647 kPa, x2 = 0.498	469.8 ± 0.8	97.67 ± 0.26 J/K/mol
395.15 K, 4489 kPa, x2 = 0.498	274.1 ± 0.5	183.94 ± 0.41 J/K/mol
395.15 K, 5756 kPa, x2 = 0.756	279.7 ± 0.5	116.61 ± 0.33 J/K/mol
400.15 K, 4949 kPa, x2 = 0.498	274 ± 0.5	160.01 ± 0.41 J/K/mol
400.15 K, 6290 kPa, x2 = 0.756	279.6 ± 0.5	105.82 ± 0.29 J/K/mol
405.15 K, 5419 kPa, x2 = 0.498	273.9 ± 0.5	144.56 ± 0.36 J/K/mol
405.15 K, 6830 kPa, x2 = 0.756	279.6 ± 0.5	101.36 ± 0.29 J/K/mol
410.15 K, 5896 kPa, x2 = 0.498	273.8 ± 0.5	131.68 ± 0.31 J/K/mol
410.15 K, 7375 kPa, x2 = 0.756	279.5 ± 0.5	96.37 ± 0.29 J/K/mol
415.15 K, 4254 kPa, x2 = 0	273.8 ± 0.7	230.8 ± 1.3 J/K/mol and 222.08 ± 0.99 J/K/mol
415.15 K, 6379 kPa, x2 = 0.498	273.7 ± 0.5	124.31 ± 0.31 J/K/mol
415.15 K, 7922 kPa, x2 = 0.756	279.4 ± 0.5	93.23 ± 0.24 J/K/mol
420.15 K, 4664 kPa, x2 = 0	273.7 ± 0.4	202.67 ± 0.58 J/K/mol
420.15 K, 4665 kPa, x2 = 0	273.8 ± 0.4	202.96 ± 0.58 J/K/mol
420.15 K, 6865 kPa, x2 = 0.498	273.6 ± 0.5	115.11 ± 0.31 J/K/mol
420.15 K, 8472 kPa, x2 = 0.756	279.3 ± 0.5	90.85 ± 0.24 J/K/mol
425.15 K, 5082 kPa, x2 = 0	273.7 ± 0.5	186.05 ± 3 J/K/mol
425.15 K, 5083 kPa, x2 = 0	273.7 ± 0.5	187.1 ± 3.8 J/K/mol
425.15 K, 7354 kPa, x2 = 0.498	273.6 ± 0.5	109.18 ± 0.31 J/K/mol

CCC [propane] + CC(C)C
x1 = 1
Conditions	mass density, [2] [kg/m3]	molar heat capacity at constant volume, [1] [J/K/mol]
270.15 K, 4427 kPa	539.9 ± 0.9	71.74 ± 0.22
275.15 K, 7953 kPa	539.6 ± 0.9	71.26 ± 0.22
280.15 K, 11458 kPa	539.3 ± 0.9	71.3 ± 0.22
285.15 K, 14939 kPa	539 ± 0.9	72.63 ± 0.22
290.15 K, 18398 kPa	538.7 ± 0.9	73.46 ± 0.22
295.15 K, 21836 kPa	538.4 ± 0.9	74.57 ± 0.22
300.15 K, 25251 kPa	538.1 ± 0.9	74.61 ± 0.22
305.15 K, 28640 kPa	537.8 ± 0.9	74.35 ± 0.22
310.15 K, 6561 kPa	490.3 ± 0.8	74.57 ± 0.22
315.15 K, 9049 kPa	490.1 ± 0.8	75.23 ± 0.22
320.15 K, 11532 kPa	489.8 ± 0.8	76.15 ± 0.22
325.15 K, 3660 kPa	454.8 ± 0.7	77.96 ± 0.22
325.15 K, 14008 kPa	489.6 ± 0.8	76.37 ± 0.22
330.15 K, 5594 kPa	454.6 ± 0.7	78.75 ± 0.22
330.15 K, 16475 kPa	489.3 ± 0.8	76.64 ± 0.22
335.15 K, 7530 kPa	454.3 ± 0.7	78.31 ± 0.22
335.15 K, 18934 kPa	489.1 ± 0.8	76.9 ± 0.22
340.15 K, 9468 kPa	454.1 ± 0.7	77.7 ± 0.22
340.15 K, 21386 kPa	488.9 ± 0.8	77.21 ± 0.22
345.15 K, 11404 kPa	453.9 ± 0.7	77.26 ± 0.22
345.15 K, 23827 kPa	488.6 ± 0.8	76.33 ± 0.22
350.15 K, 13339 kPa	453.7 ± 0.7	79.46 ± 0.22
350.15 K, 26253 kPa	488.4 ± 0.8	77.52 ± 0.22
355.15 K, 15273 kPa	453.5 ± 0.7	77.39 ± 0.22
355.15 K, 28668 kPa	488.2 ± 0.8	77.43 ± 0.22
360.15 K, 17203 kPa	453.3 ± 0.7	77.74 ± 0.22
365.15 K, 19126 kPa	453.1 ± 0.7	78.62 ± 0.22
370.15 K, 21044 kPa	452.9 ± 0.7	79.15 ± 0.22
375.15 K, 5095 kPa	301.1 ± 0.5	98.6 ± 0.26
380.15 K, 5744 kPa	301 ± 0.5	93.04 ± 0.26
385.15 K, 6404 kPa	300.9 ± 0.5	89.6 ± 0.26
390.15 K, 7072 kPa	300.8 ± 0.5	86.07 ± 0.26
395.15 K, 7746 kPa	300.7 ± 0.5	84.84 ± 0.26
400.15 K, 8425 kPa	300.6 ± 0.5	80.43 ± 4.6
405.15 K, 9109 kPa	300.5 ± 0.5	78.84 ± 11
410.15 K, 9795 kPa	300.4 ± 0.5	79.99 ± 0.22
420.15 K, 11176 kPa	300.2 ± 0.5	79.81 ± 0.22
425.15 K, 11869 kPa	300.1 ± 0.5	81.75 ± 0.22
